# Data reported in paper PMC11725774 (Cancer Research Communications, 2025).
# Columns and labels:
# [1] = test system: CYP3A; test: CYP inhibition; assay type: in vitro ADME; conditions: human
# [2] = test system: AML cell lines expressing FLT3 ITD (MV-4-11, MOLM-13, and MOLM-14); test: Growth inhibition of AML cell lines; assay type: cell-based; conditions: Homo sapiens; range over MV-4-11, MOLM-13, MOLM-14
# Method: MV-4-11 (CRL-9591), HS-5 (CRL-3611), and KG1a (CCL-246.1) cells were obtained from ATCC. MOLM-13 (ACC 554) and MOLM-14 (ACC 777) were obtained from DSMZ (Deutsche Sammlung von Mikroorganismen und Zellkulturen). MOLM-14 cells contain one WT FLT3 allele and one FLT3-ITD allele. MOLM-14 FLT3-ITD/F691 cells were prepared by transfection of MOLM-14 cells with a vector expressing the FLT3 TKD F691L mutation. MV-4-11 cells expressing NRAS^G12D were prepared by transduction with a lentiviral vector encoding the NRAS^G12D mutation. Assays using a panel of parental Ba/F3 into which an additional copy of either WT or a mutant form of FLT3 was introduced were performed at Kyinno Biotechnology Co., Ltd. All cell lines were short tandem repeat authenticated at ATCC or at DSMZ when originally obtained, and no further authentication was done after receipt of the cells in the laboratory.
# Assays using Ba/F3 cells expressing WT and mutant forms of FLT3 were performed by Kyinno Biotechnology. The cells were cultured in the medium recommended by the source for each cell line. Growth inhibition assays were performed using either Cell Titer 96 Aqueous One Solution Cell Proliferation assay (Promega, # G3581) or CCK8 (Dojindo, # CK-04). […] IC50 values were determined from growth inhibition curves fitted using GraphPad Prism and a nonlinear regression model with sigmoidal dose response. […]
# [3] = test system: TUS/R MOLM-14 cells; test: Growth inhibition of TUS-resistant sublines versus parental; assay type: cell-based, human; conditions: Homo sapiens, MOLM-14; read-out: IC50, cells with acquired resistance
# [4] = test system: TUS/R line 3 (MOLM-14); test: Growth inhibition of TUS-resistant subline; assay type: cell-based, human; conditions: Homo sapiens
structure (smiles),measurement,setting,value
"Cc1ccc2c(-c3nc(Nc4cc(CN5C[C@@H](C)N[C@@H](C)C5)cc(C5CC5)c4)ncc3Cl)c[nH]c2c1 [TUS, Tuspetinib]",Ki,[1],< 1000 nM
same,GI50,[2],1.3 to 5.2 nM
same,IC50,[3],139 ± 38.6 nM
same,GI50,"[4]; MOLM-14, read-out: GI50 (nM) TUS/R line 3, mean ± SEM (Supplementary Table 6)",108 ± 24 nM
same,IC50,"[4]; MOLM-14, read-out: IC50 (nmol/L), Mean ± SEM, TUS/R line 3",108 ± 24 nmol/L
